Several values for one entry are separate records, joined by “and”; a condition that tells them apart may be missing. Equal values may be shown once.

This is an account of results in patent US11913884B2, “Visible light-activated dyes and methods of use thereof” (William Marsh Rice University, priority 2019, dated 2024).

Data set [1] has as its system adipocytes differentiated from 3T3-L1 cells. Kind of data set: Co-localization assay by confocal laser scanning microscopy. Type of data set: cell-based. The following applies: 2 μM, 10 mins, after 488-nm laser for 30 s. The protocol: Before testing the utility of thio-caged fluorophores for investigating biological systems, the cytotoxicity of SNile Red in adipocytes was evaluated using Cell Counting Kit-8. At a concentration of 4 μM SNile Red, 90% of 3T3-L1 cells remained viable even after 24 hours (FIG. 10). Thio-caged dyes were then used to obtain subcellular structural data via fluorescence imaging of adipocytes. Nile Red and BODIPY are the fluorescent dyes most commonly used for lipid imaging (Corsaro and Pistara, 1998, Spiller et al., 1998, Tang et al., 2013). Confocal laser scanning microscopy (CLSM) was used to determine the specificity of SNile Red localization in adipocytes differentiated from 3T3-L1 cells. For colocalization studies, adipocytes were stained with 2 μM SNile Red and 100 nM BODIPY 493/503 for 10 mins.
3T3-L1 cells were differentiated to adipocytes according to the protocol from ATCC (Chemically-induced differentiation of at CC® CL-173TM (3T3-L1) using single-Component Commercially-available reagents). […]
After incubation of 2 μM SNile Red for 10 min, cells were washed with PBS (pH 7.4) twice and turned to confocal laser scanning microscope (CLSM). […] Differential interference contrast (DIC) and fluorescent images were processed and analyzed using ImageJ. The Pearson's Coefficient was calculated by ImageJ.

The nature of data set [2]: Photoactivation (turn-on) of thio-caged fluorophores in solution by light irradiation. In kind it is physicochemical. The source says:
To determine whether a minimal one atom sulfur-for-oxygen substitution within fluorophores can lead to fluorescence quenching, thio-caged Nile Red (SNile Red, FIG. 1) was synthesized, in which a carbonyl group was replaced with a thiocarbonyl moiety. Treatment of Nile Red with Lawesson's reagent in refluxing benzene produced the desired SNile Red in a yield of 40%. […] Irradiation of SNile Red with red light (615 nm, 0.4 μW cm-2) led to the regeneration of fluorescent Nile Red in a high yield (FIG. 2A). The absorption maxima of SNile Red at 298, 368 and 652 nm were blue-shifted after desulfuration to 315 and 556 nm, in a good agreement with the absorption spectrum of authentic synthesized Nile Red (FIG. 2B). The A556/A652 value, representing the ratio of the absorbance maxima of Nile Red and SNile Red, increased from 0.25 to 30 after desulfuration reaction (FIG. 2B). Upon irradiation with red light, the fluorescence intensity of the desulfurated material at 626 nm increased 280-fold, accompanied by a change in fluorescence from dark to red (FIG. 2C). To evaluate the proper light source for SNile Red photoactivation, SNile Red was irradiated with either 470 nm, 615 nm, or 850 nm light for different times and fluorescence intensities at 626 nm were recorded. […] To further characterize the photoactivated product of SNile Red, ^1H NMR and ESI-MS spectral changes were measured in the process of photoactivation (FIG. 2A). […] Signals corresponding to phenyl moiety protons at 8.64, 8.62, 7.85, 7.73, 7.36, 7.04, and 6.79 ppm gradually disappeared, and were replaced by new signals appearing at 8.57, 8.13, 7.81, 7.72, 7.63, 6.85, 6.69 and 6.30 ppm, respectively. […] The photoactivated product was also characterized by ESI-mass spectrometric analysis FIG. 3). The observed m/z 319.2 corresponding to Nile Red confirms the photoactivation product of SNile Red is its oxo form. Both dialkylthioketones and diarylthioketones are known to undergo photo-oxidation reaction under oxygen and light to give the corresponding ketones (Coyle, 1985, Corsaro and Pistara, 1998). To investigate the effects of dissolved oxygen and light on the photoactivation of thio-caged fluorophores, the time profile of the fluorescence of SNile Red was measured in the presence or absence of light, or oxygen. […] To study the effect of oxygen during the photoactivation, the inventors prepared an oxygen-free SNile Red solution by bubbling nitrogen gas and irradiated at 615 nm. […] Inspired by the photoactivation mechanism of thioketones, it was hypothesized that singlet oxygen generated by self-sensitization can be the active species to oxidize thiocarbonyl groups within fluorophores (Coyle, 1985 and Corsaro and Pistara, 1998). […] The singlet oxygen quantum yield (DA) was further determined to be 0.36 with considering the absorption correction factor over the 600-630 nm region (Bonacin et al., 2009 and Adarsh et al., 2010) by referring to methylene blue (MB) (ΦΔ,MB=0.57 in dichloromethane; Li et al., 2013).
Encouraged by the excellent photoactivation properties of SNile Red, Lawesson's reagent was employed to introduce thiocarbonyl moieties into several different fluorophores, such as phthalimide (PI), coumarin (Cou) and acridone (ACD), obtaining yields ranging from 20-80% (FIG. 1). Next, characterization of the spectroscopic and photochemical properties of these thiocaged fluorophores and their oxidized products using UV-vis and fluorescence spectroscopies was performed (Table 1). […] Double thiocarbonyl substitution on 4-dimethylaminophthalimide (4-DMAP, FIG. 1) produced an even larger bathochromic shift of 166 nm. […] It was hypothesized that the red-shift and enhanced absorption seen with thiocarbonyl compounds were due to the reduced energy gap between the HOMO-LUMO in these fluorophores. This is consistent with the computational results discussed below. […]

`CCN(CC)c1ccc2nc3c4ccccc4c(=S)cc-3oc2c1` [SNile Red]: the “colocalization with BODIPY 493/503 labeling” value in data set [1] was “more than 90%”. Moreover, the “fluorescence change at 626 nm with light of shorter wavelengths than 652 nm” value in data set [2] (470 nm or 615 nm light) was “significant fluorescence enhancement”. In addition, in data set [2] (615 nm light in air for 20 mins), the “increase of fluorescence intensity at 626 nm” value amounted to 90 fold. For the same compound, the “activation by light out of the absorbance range” value in data set [2] (850 nm, after 5 hrs) is listed as “negligible activation”. Moreover, the “Turn-on (x-fold)” value in data set [2] (DMSO, footnote e: 470 nm, 0.4 μW cm^−2) is 280^e x-fold. The A556/A652 value in data set [2] (after desulfuration reaction) was determined as 30; in data set [2] (before desulfuration reaction), 0.25. Moreover, the “absorption maxima after desulfuration” value in data set [2] (after irradiation with red light (615 nm, 0.4 μW cm-2)) is 315 nm and 556 nm. Besides, the “change of fluorescent spectrum” value in data set [2] (in the absence of light) is on record as “no change”. The “change of fluorescence intensity” value in data set [2] (oxygen-free solution (nitrogen bubbled), 615 nm, within 20 mins irradiation) is listed as “no significant change”. In data set [2] (upon irradiation with red light), the “increase of fluorescence intensity at 626 nm (activation ratio)” value is recorded as 280 fold.
